Source: ChEMBL document CHEMBL1833830, “1-[2-(2-Benzoyl- and 2-benzylphenoxy)ethyl]uracils as potent anti-HIV-1 agents” (Bioorg Med Chem, 2011)
Activity calls are given as the source filed them.

Key:
Human respirovirus 3 = test: Antiviral activity against Parainfluenza 3 virus assessed as inhibition of viral replication; format: functional, organism-based
[1] = test system: Mammalian orthoreovirus 1; test: Antiviral activity against Reovirus 1 assessed as inhibition of viral replication; format: functional, organism-based
Sindbis virus = test: Antiviral activity against Sindbis virus assessed as inhibition of viral replication; format: functional, organism-based
[2] = test system: Vesicular stomatitis virus; test: Antiviral activity against Vesicular stomatitis virus assessed as inhibition of viral replication; format: functional, organism-based
[3] = test system: Respiratory syncytial virus; test: Antiviral activity against Respiratory syncytial virus assessed as inhibition of viral replication; format: functional, organism-based
Coxsackievirus B4 = test: Antiviral activity against Coxsackievirus B4 assessed as inhibition of viral replication; format: functional, organism-based
Feline coronavirus = test: Antiviral activity against Feline coronavirus assessed as inhibition of viral replication; format: functional, organism-based
Yellow fever virus = test: Antiviral activity against Yellow fever virus assessed as inhibition of viral replication; format: functional, organism-based
Dengue virus = test: Antiviral activity against Dengue virus assessed as inhibition of viral replication; format: functional, organism-based
Rift Valley fever virus = test: Antiviral activity against Rift Valley fever virus assessed as inhibition of viral replication; format: functional, organism-based
Punta Toro virus = test: Antiviral activity against Punta Toro virus assessed as inhibition of viral replication; format: functional, organism-based
West Nile virus = test: Antiviral activity against West Nile virus assessed as inhibition of viral replication; format: functional, organism-based
[4] = Inhibition of DNA-dependent DNA polymerase activity of HIV1 reverse transcriptase p66/p66 homodimer using activated DNA and [alpha-32P]dATP after 30 mins by liquid scintillation counting; parameters: species or system Human immunodeficiency virus 1
[5] = biological target: Human immunodeficiency virus type 1 reverse transcriptase (Human immunodeficiency virus 1, UniProt Q72547); test: Inhibition of RNA-dependent DNA polymerase activity of HIV1 reverse transcriptase p66/p51 heterodimer using [8-3H]dGTP as substrate after 30 mins by liquid scintillation counting
[6] = test system: Human immunodeficiency virus 2; test: Antiviral activity against Human immunodeficiency virus type 2 ROD infected in human CEM cells assessed as inhibition of virus-induced giant cell formation after 4 days by microscopic analysis; format: functional, organism-based; conditions: ISOLATE ROD, CCRF-CEM
[7] = test system: Human immunodeficiency virus 2; test: Antiviral activity against Human immunodeficiency virus type 2 ROD infected in human MT4 cells assessed as inhibition of virus-induced cytopathic effect after 4 days by MTT assay; format: functional, organism-based; conditions: ISOLATE ROD
[8] = test system: Human immunodeficiency virus 1; format: functional, organism-based; conditions: Human immunodeficiency virus 1, 3B, MT4, 96 h
[9] = Cytotoxicity against human MT4 cells after 4 days by MTT assay; format: cell-based
Human alphaherpesvirus 1 = test: Antiviral activity against HSV1 assessed as inhibition of viral replication; format: functional, organism-based
Human alphaherpesvirus 2 = test: Antiviral activity against HSV-2 assessed as inhibition of viral replication; format: functional, organism-based
Vaccinia virus = test: Antiviral activity against Vaccinia virus assessed as inhibition of viral replication; format: functional, organism-based; conditions: Orthopoxvirus vaccinia
in vitro [10] = conditions: human, MT4 cells
in vitro [11] = conditions: human, MT4 cells; remark: listed apart in the source
[12] = test system: Human immunodeficiency virus 1; test: microbe, parasite or virus in culture; conditions: Human immunodeficiency virus 1, 3B, MT4, 96 h
[13] = Solubility of the compound in 10% DMSO after overnight incubation by UV spectrometric analysis; format: physicochemical
[14] = Solubility of the compound in 0.1% DMSO after overnight incubation by UV spectrometric analysis; format: physicochemical

Cc1cc(C)cc(C(=O)c2cc(Cl)ccc2OCCn2cc(C)c(=O)[nH]c2=O)c1
1.2 µM: Ki [4]
1.1 µM: Ki [5]
4.09 µM: EC50 [8]
> 303 µM: CC50 at 96 h [9]
inactive: Activity (Human respirovirus 3) | Activity [1] | Activity (Sindbis virus) | Activity [2] | Activity [3] | Activity (Coxsackievirus B4) | Activity (Feline coronavirus) | Activity (Yellow fever virus) | Activity (Dengue virus) | Activity (Rift Valley fever virus) | Activity (Punta Toro virus) | Activity (West Nile virus) | Activity [6] | Activity [7] | Activity (Human alphaherpesvirus 1) | Activity (Human alphaherpesvirus 2) | Activity (Vaccinia virus)
0.044 µM: EC50 [12]
> 74: selectivity ratio (in vitro [11])
> 6880: selectivity ratio (in vitro [10])

Cc1cc(C)cc(C(=O)c2cc(Cl)ccc2OCCn2c(C)cc(=O)[nH]c2=O)c1
4.09 µM: EC50 [8]
0.02 µM: EC50 [12]
0.73 µM: Ki [4]
1.7 µM: Ki [5]
inactive: Activity (Human respirovirus 3) | Activity [1] | Activity (Sindbis virus) | Activity [2] | Activity [3] | Activity (Coxsackievirus B4) | Activity (Feline coronavirus) | Activity (Yellow fever virus) | Activity (Dengue virus) | Activity (Rift Valley fever virus) | Activity (Punta Toro virus) | Activity (West Nile virus) | Activity [6] | Activity [7] | Activity (Human alphaherpesvirus 1) | Activity (Human alphaherpesvirus 2) | Activity (Vaccinia virus)
> 74: selectivity ratio (in vitro [11])
> 303 µM: CC50 at 96 h [9]
> 15100: selectivity ratio (in vitro [10])

O=C(c1cc(Br)cc(Br)c1)c1cc(Cl)ccc1OCCn1ccc(=O)[nH]c1=O
2.3 µM: Ki [4]
0.47 µM: Ki [5]
inactive: Activity (Human respirovirus 3) | Activity [1] | Activity (Sindbis virus) | Activity [2] | Activity [3] | Activity (Coxsackievirus B4) | Activity (Feline coronavirus) | Activity (Yellow fever virus) | Activity (Dengue virus) | Activity (Rift Valley fever virus) | Activity (Punta Toro virus) | Activity (West Nile virus) | Activity [6] | Activity [7] | Activity (Human alphaherpesvirus 1) | Activity (Human alphaherpesvirus 2) | Activity (Vaccinia virus)
0.032 µM: EC50 [12]
> 237 µM: EC50 [8]
> 7390: selectivity ratio (in vitro [10])
1: selectivity ratio (in vitro [11])
> 236 µM: CC50 at 96 h [9]

O=C(c1ccccc1)c1cc(Br)ccc1OCCn1ccc(=O)[nH]c1=O
0.065 µM: EC50 [12]
> 301 µM: EC50 [8] | CC50 at 96 h [9]
2 µM: Ki [4]
1: selectivity ratio (in vitro [11])
> 4630: selectivity ratio (in vitro [10])
inactive: Activity (Human respirovirus 3) | Activity [1] | Activity (Sindbis virus) | Activity [2] | Activity [3] | Activity (Coxsackievirus B4) | Activity (Feline coronavirus) | Activity (Yellow fever virus) | Activity (Dengue virus) | Activity (Rift Valley fever virus) | Activity (Punta Toro virus) | Activity (West Nile virus) | Activity [6] | Activity [7] | Activity (Human alphaherpesvirus 1) | Activity (Human alphaherpesvirus 2) | Activity (Vaccinia virus)
0.45 µM: Ki [5]

Cc1cc(C)cc(C(=O)c2cc(Br)ccc2OCCn2ccc(=O)[nH]c2=O)c1
inactive: Activity (Human respirovirus 3) | Activity [1] | Activity (Sindbis virus) | Activity [2] | Activity [3] | Activity (Coxsackievirus B4) | Activity (Feline coronavirus) | Activity (Yellow fever virus) | Activity (Dengue virus) | Activity (Rift Valley fever virus) | Activity (Punta Toro virus) | Activity (West Nile virus) | Activity [6] | Activity [7] | Activity (Human alphaherpesvirus 1) | Activity (Human alphaherpesvirus 2) | Activity (Vaccinia virus)
> 12300: selectivity ratio (in vitro [10])
1.7 µM: Ki [5]
> 282 µM: EC50 [8] | CC50 at 96 h [9]
1.8 µM: solubility [14]
1: selectivity ratio (in vitro [11])
6.6 µM: solubility [13]
0.023 µM: EC50 [12]
0.77 µM: Ki [4]

O=C(c1cc(F)cc(F)c1)c1cc(Cl)ccc1OCCn1ccc(=O)[nH]c1=O
0.027 µM: EC50 [12]
17.6 µM: solubility [13]
0.77 µM: Ki [4]
0.36 µM: Ki [5]
1: selectivity ratio (in vitro [11])
> 11400: selectivity ratio (in vitro [10])
7.3 µM: solubility [14]
> 307 µM: EC50 [8] | CC50 at 96 h [9]
inactive: Activity (Human respirovirus 3) | Activity [1] | Activity (Sindbis virus) | Activity [2] | Activity [3] | Activity (Coxsackievirus B4) | Activity (Feline coronavirus) | Activity (Yellow fever virus) | Activity (Dengue virus) | Activity (Rift Valley fever virus) | Activity (Punta Toro virus) | Activity (West Nile virus) | Activity [6] | Activity [7] | Activity (Human alphaherpesvirus 1) | Activity (Human alphaherpesvirus 2) | Activity (Vaccinia virus)

Cc1cccc(C(=O)c2cc(Cl)ccc2OCCn2ccc(=O)[nH]c2=O)c1
0.052 µM: EC50 [12]
0.21 µM: Ki [5]
0.49 µM: Ki [4]
> 6250: selectivity ratio (in vitro [10])
> 6: selectivity ratio (in vitro [11])
inactive: Activity (Human respirovirus 3) | Activity [1] | Activity (Sindbis virus) | Activity [2] | Activity [3] | Activity (Coxsackievirus B4) | Activity (Feline coronavirus) | Activity (Yellow fever virus) | Activity (Dengue virus) | Activity (Rift Valley fever virus) | Activity (Punta Toro virus) | Activity (West Nile virus) | Activity [6] | Activity [7] | Activity (Human alphaherpesvirus 1) | Activity (Human alphaherpesvirus 2) | Activity (Vaccinia virus)
> 325 µM: CC50 at 96 h [9]
52 µM: EC50 [8]

O=C(c1ccccc1)c1cc(F)ccc1OCCn1ccc(=O)[nH]c1=O
2.6 µM: Ki [5]
> 2: selectivity ratio (in vitro [11])
> 353 µM: CC50 at 96 h [9]
2.9 µM: Ki [4]
0.51 µM: EC50 [12]
inactive: Activity (Human respirovirus 3) | Activity [1] | Activity (Sindbis virus) | Activity [2] | Activity [3] | Activity (Coxsackievirus B4) | Activity (Feline coronavirus) | Activity (Yellow fever virus) | Activity (Dengue virus) | Activity (Rift Valley fever virus) | Activity (Punta Toro virus) | Activity (West Nile virus) | Activity [6] | Activity [7] | Activity (Human alphaherpesvirus 1) | Activity (Human alphaherpesvirus 2) | Activity (Vaccinia virus)
171 µM: EC50 [8]
> 694: selectivity ratio (in vitro [10])

O=C(c1ccccc1)c1cc(Cl)ccc1OCCn1ccc(=O)[nH]c1=O
1: selectivity ratio (in vitro [11])
> 337 µM: EC50 [8] | CC50 at 96 h [9]
0.089 µM: EC50 [12]
0.65 µM: Ki [5]
0.98 µM: Ki [4]
> 3790: selectivity ratio (in vitro [10])
inactive: Activity (Human respirovirus 3) | Activity [1] | Activity (Sindbis virus) | Activity [2] | Activity [3] | Activity (Coxsackievirus B4) | Activity (Feline coronavirus) | Activity (Yellow fever virus) | Activity (Dengue virus) | Activity (Rift Valley fever virus) | Activity (Punta Toro virus) | Activity (West Nile virus) | Activity [6] | Activity [7] | Activity (Human alphaherpesvirus 1) | Activity (Human alphaherpesvirus 2) | Activity (Vaccinia virus)

Cc1ccc(OCCn2ccc(=O)[nH]c2=O)c(C(=O)c2ccccc2)c1
1: selectivity ratio (in vitro [11])
0.31 µM: EC50 [12]
> 1140: selectivity ratio (in vitro [10])
5.6 µM: Ki [4]
> 357 µM: EC50 [8] | CC50 at 96 h [9]
inactive: Activity (Human respirovirus 3) | Activity [1] | Activity (Sindbis virus) | Activity [2] | Activity [3] | Activity (Coxsackievirus B4) | Activity (Feline coronavirus) | Activity (Yellow fever virus) | Activity (Dengue virus) | Activity (Rift Valley fever virus) | Activity (Punta Toro virus) | Activity (West Nile virus) | Activity [6] | Activity [7] | Activity (Human alphaherpesvirus 1) | Activity (Human alphaherpesvirus 2) | Activity (Vaccinia virus)
1.7 µM: Ki [5]
